According to patent US9884818B2, “Sulphamoylpyrrolamide derivatives and the use thereof as medicaments for the treatment of hepatitis B” (Janssen Sciences Ireland UC, priority 2013, dated 2018):

What was measured:
HBV [1] = assay: Anti-HBV activity, HepG2.2.15 stable transfected cell line, HBV DNA from secreted virions by realtime PCR; type: cell-based; conditions: Hepatitis B virus, HepG2.2.15, 144 h, HepG2.2.15 cells, 6 days of treatment, HBV DNA from secreted virions; read-out: HepG2 2.15 EC50
HBV [2] = assay: Anti-HBV activity, HepG2.117 inducibly HBV producing cell line (Tet-off), intracellular HBV DNA by realtime PCR; type: cell-based; conditions: Hepatitis B virus, HepG2.117, 72 h, HepG2.117 cells, 3 days of treatment, intracellular HBV DNA; read-out: HepG2 117 EC50
[3] = Cytotoxicity in HepG2 cells, Resazurin viability assay; conditions: human, HepG2 cells, HepG2 4 days CC50 (μM), incubated for 4 days, Resazurin assay

Row | Compound | EC50 (HBV [1]) | EC50 (HBV [2]) | CC50 at 4 days [3]
1 | Cc1c(S(=O)(=O)N[C@H](C)C(F)(F)F)cn(C)c1C(=O)Nc1ccc(F)c(Cl)c1 [Compound 145, N-(3-Chloro-4-fluorophenyl)-1,3-dimethyl-4-{[(1R)-2,2,2-trifluoro-1-methylethyl]sulfamoyl}-1H-pyrrole-2-carboxamide] | 40 nM | 30 nM | > 25 µM
2 | Cn1cc(S(=O)(=O)NCC(F)(F)F)cc1C(=O)Nc1ccc(F)c(C#N)c1 [Compound 134, N-(3-Cyano-4-fluorophenyl)-1-methyl-4-[(2,2,2-trifluoroethyl)sulfamoyl]-1H-pyrrole-2-carboxamide] | 180 nM | 130 nM | > 25 µM
3 | Cn1cc(S(=O)(=O)NCC(F)(F)F)cc1C(=O)Nc1cc(F)c(F)c(Cl)c1 [Compound 133, N-(3-Chloro-4,5-difluorophenyl)-1-methyl-4-[(2,2,2-trifluoroethyl)sulfamoyl]-1H-pyrrole-2-carboxamide] | 40 nM | 80 nM | > 25 µM
4 | [2H]C([2H])([2H])C(NS(=O)(=O)c1cc(C(=O)Nc2ccc(F)c(C)c2)n(C)c1)(C([2H])([2H])[2H])C([2H])([2H])[2H] [Compound 69, N-(4-fluoro-3-methyl-phenyl)-1-methyl-4-[[2,2,2-trideuterio-1,1-bis(trideuteriomethyl)ethyl]sulfamoyl]pyrrole-2-carboxamide] | 30 nM | 70 nM | > 25 µM
5 | Cn1cc(S(=O)(=O)NC(CF)CF)cc1C(=O)Nc1ccc(F)c(C#N)c1 [Compound 242, N-(3-Cyano-4-fluorophenyl)-4-{[2-fluoro-1-(fluoromethyl)ethyl]sulfamoyl}-1-methyl-1H-pyrrole-2-carboxamide] | 200 nM | 300 nM | > 25 µM
6 | Cc1cc(NC(=O)c2cc(S(=O)(=O)NC3(C)COC3)cn2C)ccc1Cl [Compound 77, N-(4-Chloro-3-methylphenyl)-1-methyl-4-[(3-methyloxetan-3-yl)sulfamoyl]-1H-pyrrole-2-carboxamide] | 70 nM | 180 nM | > 25 µM
7 | Cc1cc(NC(=O)c2cc(S(=O)(=O)NC(C)C)cn2C)cc(F)c1F [Compound 33, N-(3,4-difluoro-5-methyl-phenyl)-4-(isopropylsulfamoyl)-1-methyl-pyrrole-2-carboxamide] | 30 nM | 40 nM | > 25 µM
8 | Cn1cc(S(=O)(=O)NC2(C)CC2)cc1C(=O)Nc1ccc(F)c(Cl)c1F [Compound 255, N-(3-chloro-2,4-difluoro-phenyl)-1-methyl-4-[(1-methylcyclopropyl)-sulfamoyl]-1H-pyrrole-2-carboxamide] | 90 nM | 100 nM | > 25 µM
9 | Cn1cc(S(=O)(=O)NC(C)(C)CF)cc1C(=O)Nc1ccc(F)c(Cl)c1F [Compound 261] | 40 nM | 130 nM | > 25 µM
10 | Cn1cc(S(=O)(=O)NC2(C)CC(F)(F)C2)cc1C(=O)Nc1cc(F)c(F)c(Cl)c1 [Compound 65, N-(3-chloro-4,5-difluoro-phenyl)-4-[(3,3-difluoro-1-methyl-cyclo-butyl)sulfamoyl]-1-methyl-pyrrole-2-carboxamide] | 10 nM | 10 nM | > 25 µM
11 | [2H]c1cc(F)c(C)c([2H])c1NC(=O)c1cc(S(=O)(=O)NC(C([2H])([2H])[2H])(C([2H])([2H])[2H])C([2H])([2H])[2H])cn1C [Compound 70, N-(2,6-dideuterio-4-fluoro-3-methyl-phenyl)-1-methyl-4-[[2,2,2-trideuterio-1,1-bis(trideuteriomethyl)ethyl]sulfamoyl]pyrrole-2-carboxamide] | 20 nM | 40 nM | > 25 µM
12 | Cn1cc(S(=O)(=O)NC(C)(C)C)cc1C(=O)Nc1ccc(F)c(F)c1 [Compound 19, 4-(tert-butylsulfamoyl)-N-(3,4-difluorophenyl)-1-methyl-pyrrole-2-carboxamide] | 60 nM | 80 nM | > 25 µM
13 | Cn1cc(S(=O)(=O)NC2(C)CC(F)(F)C2)cc1C(=O)Nc1ccc(F)c(Cl)c1F [Compound 256, N-(3-chloro-2,4-difluoro-phenyl)-4-[(3,3-difluoro-1-methyl-cyclo-butyl)sulfamoyl]-1-methyl-1H-pyrrole-2-carboxamide] | 20 nM | 30 nM | > 25 µM
14 | C[C@@H](NS(=O)(=O)c1cn(C)c(C(=O)Nc2ccc(F)c(C#N)c2)c1Cl)C(F)(F)F [Compound 199, 3-Chloro-N-(3-cyano-4-fluorophenyl)-1-methyl-4-{[(1R)-2,2,2-trifluoro-1-methylethyl]sulfamoyl}-1H-pyrrole-2-carboxamide] | 6 nM | 8 nM | > 25 µM
15 | Cn1cc(S(=O)(=O)NC2(C)COC2)cc1C(=O)Nc1cccc(C(F)(F)F)c1 [Compound 28, 1-methyl-4-[(3-methyloxetan-3-yl)sulfamoyl]-N-[3-(trifluoromethyl)-phenyl]pyrrole-2-carboxamide] | 100 nM | 140 nM | > 25 µM
16 | Cn1cc(S(=O)(=O)NC(C)(C)C)c(Cl)c1C(=O)Nc1ccc(F)c(Cl)c1F [Compound 224, 4-(tert-Butylsulfamoyl)-3-chloro-N-(3-chloro-2,4-difluorophenyl)-1-methyl-1H-pyrrole-2-carboxamide] | 220 nM | 260 nM | > 25 µM
17 | Cn1cc(S(=O)(=O)NC(C)(C)C)c(F)c1C(=O)Nc1ccc(F)c(Cl)c1F [Compound 212, 4-(tert-Butylsulfamoyl)-N-(3-chloro-2,4-difluorophenyl)-3-fluoro-1-methyl-1H-pyrrole-2-carboxamide] | 90 nM | 40 nM | > 25 µM
18 | Cc1cc(NC(=O)c2cc(S(=O)(=O)NC3(C)CCOC3)cn2C)ccc1F (stereo not drawn) [Compound 11, N-(4-fluoro-3-methyl-phenyl)-1-methyl-4-[(3-methyltetrahydrofuran-3-yl)sulfamoyl]pyrrole-2-carboxamide] | 30 nM | 20 nM | > 25 µM
19 | CNC(=O)C1(NS(=O)(=O)c2cc(C(=O)Nc3cc(F)c(F)c(Cl)c3)n(C)c2)CC1 [Compound 115, N-(3-Chloro-4,5-difluorophenyl)-1-methyl-4-{[1-(methylcarbamoyl)cyclopropyl]sulfamoyl}-1H-pyrrole-2-carboxamide] | 300 nM | 110 nM | > 25 µM
20 | C[C@@H](NS(=O)(=O)c1cc(C(=O)Nc2ccc(F)c(Br)c2)n(C)c1)C(F)(F)F [Compound 124, N-(3-Bromo-4-fluorophenyl)-1-methyl-4-{[(1R)-2,2,2-trifluoro-1-methylethyl]sulfamoyl}-1H-pyrrole-2-carboxamide] | 40 nM | 40 nM | > 25 µM
21 | Cc1cc(NC(=O)c2cc(S(=O)(=O)N[C@H]3C[C@@H](O)C3)cn2C)ccc1F [Compound 15, N-(4-fluoro-3-methyl-phenyl)-4-[(3-hydroxycyclobutyl)sulfamoyl]-1-methyl-pyrrole-2-carboxamide] | 160 nM | 130 nM | > 25 µM
22 | C[C@@H](NS(=O)(=O)c1cc(C(=O)Nc2ccc(F)c(Cl)c2)n(C)c1)C(F)(F)F [Compound 123, N-(3-Chloro-4-fluorophenyl)-1-methyl-4-{[(1R)-2,2,2-trifluoro-1-methylethyl]sulfamoyl}-1H-pyrrole-2-carboxamide] | 40 nM | 40 nM | > 25 µM
23 | CC[C@@H](NS(=O)(=O)c1cc(C(=O)Nc2ccc(F)c(Cl)c2F)n(C)c1)C(F)(F)F [Compound 265, N-(3-chloro-2,4-difluoro-phenyl)-1-methyl-4-{[(1R)-1-(trifluoro-methyl)propyl]sulfamoyl}-1H-pyrrole-2-carboxamide] | 10 nM | 30 nM | > 25 µM
24 | Cc1cc(NC(=O)c2cc(S(=O)(=O)NC(C)C)c[nH]2)ccc1F [Compound 1, N-(4-fluoro-3-methyl-phenyl)-4-(isopropylsulfamoyl)-1H-pyrrole-2-carboxamide] | 420 nM | 3100 nM | > 25 µM
25 | Cc1cc(NC(=O)c2cc(S(=O)(=O)NC3CC(=O)N(C)C3)cn2C)ccc1F (stereo not drawn) [Compound 13, N-(4-fluoro-3-methyl-phenyl)-1-methyl-4-[(1-methyl-5-oxo-pyrrolidin-3-yl)sulfamoyl]pyrrole-2-carboxamide] | 460 nM | 140 nM | > 25 µM
26 | CC[C@H](NS(=O)(=O)c1cc(C(=O)Nc2ccc(F)c(Cl)c2F)n(C)c1)C(F)(F)F [Compound 262, N-(3-chloro-2,4-difluoro-phenyl)-1-methyl-4-{[(1S)-1-(trifluoro-methyl)propyl]sulfamoyl}-1H-pyrrole-2-carboxamide] | 20 nM | 20 nM | > 25 µM
27 | CC(C)NS(=O)(=O)c1cc(C(=O)Nc2cccc(Cl)c2F)n(C)c1 [Compound 173, N-(3-Chloro-2-fluorophenyl)-1-methyl-4-[(1-methylethyl)sulfamoyl]-1H-pyrrole-2-carboxamide] | 210 nM | 320 nM | > 25 µM
28 | Cc1c(S(=O)(=O)N[C@H](C)C(F)(F)F)cc(C(=O)Nc2ccc(F)c(F)c2)n1C [Compound 139, N-(3,4-Difluorophenyl)-1,5-dimethyl-4-{[(1R)-2,2,2-trifluoro-1-methylethyl]sulfamoyl}-1H-pyrrole-2-carboxamide] | 50 nM | 30 nM | > 25 µM
29 | Cn1cc(S(=O)(=O)NC(C)(C)C)cc1C(=O)Nc1ccc(F)c(C#N)c1 [Compound 190, 4-(tert-Butylsulfamoyl)-N-(3-cyano-4-fluorophenyl)-1-methyl-1H-pyrrole-2-carboxamide] | 90 nM | 100 nM | > 25 µM
